Measured values: ChEMBL document CHEMBL6071211, “Invention of VH-937, a Potent HIV-1 Maturation Inhibitor with the Potential for Infrequent Oral Dosing in Humans” (ACS Med Chem Lett, 2024)
Values after ≈ are worked out from the molar mass of the structure shown.

Experiments:
[1] = Volume of distribution at steady state in rat at 1 mg/kg, iv; format: ADME, organism-based; details: in vivo, read-out: Vdss
[2] = Genotoxicity in Salmonella typhimurium by Ames test; format: toxicity; details: salmonella enterica subsp. enterica serovar typhimurium
[3] = tested on: Human immunodeficiency virus 1; assay: In vitro antiviral activity against fully replicating pseudotype HIV1 harboring Gag A364V mutant assessed as maximum percent inhibition by single cycle assay relative to control; format: functional
[4] = Elimination half life in Cynomolgus monkey at 2 mg/kg, iv; format: ADME, organism-based, Macaca fascicularis; details: in vivo, read-out: beta t1/2 (converted)
[5] = tested on: Human immunodeficiency virus 1; assay: In vitro antiviral activity against fully replicating HIV1 NL4-3 harboring Gag T332S/V362I/prR41G mutant; format: functional, organism-based; details: Human immunodeficiency virus 1, NL4-3
Cytochrome P450 1A2 = target: T1, Cytochrome P450 1A2 (Homo sapiens, UniProt P05177); assay: Inhibition of CYP1A2 (unknown origin); format: ADME
T1 sequence (P05177 whole entry): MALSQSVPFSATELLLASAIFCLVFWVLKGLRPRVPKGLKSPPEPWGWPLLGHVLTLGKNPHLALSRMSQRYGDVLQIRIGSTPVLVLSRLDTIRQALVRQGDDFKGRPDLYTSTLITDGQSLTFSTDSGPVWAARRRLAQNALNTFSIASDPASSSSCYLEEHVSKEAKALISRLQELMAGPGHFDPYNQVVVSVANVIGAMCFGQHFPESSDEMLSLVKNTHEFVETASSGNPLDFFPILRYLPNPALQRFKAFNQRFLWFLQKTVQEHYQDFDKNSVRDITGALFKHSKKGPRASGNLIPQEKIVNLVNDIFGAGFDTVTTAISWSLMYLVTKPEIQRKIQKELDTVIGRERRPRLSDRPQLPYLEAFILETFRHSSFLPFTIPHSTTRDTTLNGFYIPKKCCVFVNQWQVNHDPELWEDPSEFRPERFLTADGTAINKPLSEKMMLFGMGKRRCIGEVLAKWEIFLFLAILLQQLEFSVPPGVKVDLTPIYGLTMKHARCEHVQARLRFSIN

[6] = tested on: Human immunodeficiency virus 1; assay: Ratio of EC50 for antiviral activity against fully replicating pseudotype HIV1 harboring Gag deltaV370 mutant by single cycle assay to EC50 for antiviral activity against fully replicating wild type pseudotype HIV1 NLRepRluc-P373S by single cycle assay; format: functional
[7] = Lipophilicity, logD of compound; format: physicochemical; details: octanol/water
[8] = AUC (infinity) in dog at 5 mg/kg, po; format: ADME, organism-based, Canis lupus familiaris; details: in vivo
[9] = tested on: Human immunodeficiency virus 1; assay: Ratio of EC50 for antiviral activity against fully replicating HIV1 harboring Gag V370A/deltaV371 by multicycle assay to EC50 for antiviral activity against fully replicating wild type HIV1 NLRepRluc-P373S by multicycle assay; format: functional
[10] = tested on: Human immunodeficiency virus 1; assay: In vitro antiviral activity against fully replicating HIV1 harboring Gag […]/V370A mutant by multicycle assay; format: functional, organism-based
[11] = Elimination half life in rat at 5 mg/kg, po; format: ADME, organism-based; details: in vivo, read-out: beta t1/2 (converted)
[12] = Aqueous solubility of compound in fed state simulated intestinal fluid (FeSSIF); format: physicochemical; details: simulated gi fluid
[13] = Elimination half life in dog at 2 mg/kg, iv; format: ADME, organism-based, Canis lupus familiaris; details: in vivo, read-out: beta t1/2 (converted)
[14] = tested on: Human immunodeficiency virus 1; assay: In vitro antiviral activity against fully replicating HIV1 harboring Gag […]/V370A mutant assessed as maximum percent inhibition by multicycle assay relative to control; format: functional
[15] = tested on: Human immunodeficiency virus 1; assay: In vitro antiviral activity against fully replicating pseudotype HIV1 harboring Gag deltaV370 mutant assessed as maximum percent inhibition by single cycle assay relative to control; format: functional
[16] = Elimination half life in Cynomolgus monkey at 5 mg/kg, po; format: ADME, organism-based, Macaca fascicularis; details: in vivo, read-out: beta t1/2 (converted)
[17] = Volume of distribution at steady state in dog at 2 mg/kg, iv; format: ADME, organism-based, Canis lupus familiaris; details: in vivo, read-out: Vdss
[18] = tested on: Human immunodeficiency virus 1; assay: In vitro antiviral activity against HIV1 subtype B clinical isolate 92T593; format: functional, organism-based; details: Human immunodeficiency virus 1, 92T593
[19] = tested on: Human immunodeficiency virus 1; assay: In vitro antiviral activity against fully replicating wild type HIV1 harboring NLRepRluc-P373S by multicycle assay; format: functional, organism-based
[20] = Metabolic stability in Cynomolgus monkey liver microsomes assessed as half life; format: ADME, Macaca fascicularis, Microsome
[21] = tested on: Human immunodeficiency virus 1; assay: In vitro antiviral activity against HIV1 subtype F clinical isolate BZ126; format: functional, organism-based; details: Human immunodeficiency virus 1, BZ126
[22] = tested on: Human immunodeficiency virus 1; assay: Binding affinity to HIV1 Gag A364V mutant assessed as dissociation half life by virus-like particle (VLP) assay
[23] = tested on: Human immunodeficiency virus 1; assay: In vitro antiviral activity against HIV1 subtype D clinical isolate UG270; format: functional, organism-based; details: Human immunodeficiency virus 1, UG270
[24] = tested on: Human immunodeficiency virus 1; assay: In vitro antiviral activity against fully replicating HIV1 harboring Gag V370A mutant by multicycle assay; format: functional, organism-based
[25] = Clearance in dog at 2 mg/kg, iv; format: ADME, organism-based, Canis lupus familiaris; details: in vivo
[26] = AUC (infinity) in rat at 5 mg/kg, po; format: ADME, organism-based; details: in vivo
[27] = Oral bioavailability in Cynomolgus monkey at 5 mg/kg; format: ADME, organism-based, Macaca fascicularis; details: in vivo
[28] = Elimination half life in mouse at 5 mg/kg, po; format: ADME, organism-based; details: in vivo, read-out: beta t1/2 (converted)
[29] = Elimination half life in rat at 1 mg/kg, iv; format: ADME, organism-based; details: in vivo, read-out: beta t1/2 (converted)
[30] = tested on: Human immunodeficiency virus 1; assay: In vitro antiviral activity against fully replicating pseudotype HIV1 harboring Gag deltaV370 mutant by single cycle assay; format: functional, organism-based
Cytochrome P450 2C8 = target: T2, Cytochrome P450 2C8 (Homo sapiens, UniProt P10632); assay: Inhibition of CYP2C8 (unknown origin); format: ADME
T2 sequence (P10632 whole entry): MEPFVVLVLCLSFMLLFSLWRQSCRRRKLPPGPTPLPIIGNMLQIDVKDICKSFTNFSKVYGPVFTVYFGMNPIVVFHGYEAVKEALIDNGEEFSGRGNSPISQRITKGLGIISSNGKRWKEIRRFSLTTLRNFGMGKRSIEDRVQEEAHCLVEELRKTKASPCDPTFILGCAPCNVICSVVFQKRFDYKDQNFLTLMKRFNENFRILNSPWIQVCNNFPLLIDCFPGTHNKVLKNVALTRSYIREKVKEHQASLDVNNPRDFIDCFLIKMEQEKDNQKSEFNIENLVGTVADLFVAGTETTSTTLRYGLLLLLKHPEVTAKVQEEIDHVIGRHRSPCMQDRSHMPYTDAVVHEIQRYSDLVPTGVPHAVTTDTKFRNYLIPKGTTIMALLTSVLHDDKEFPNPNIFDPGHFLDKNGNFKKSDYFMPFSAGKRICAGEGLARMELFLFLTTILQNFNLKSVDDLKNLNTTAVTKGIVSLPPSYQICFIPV

## C=C(C)[C@@H]1CC[C@]2(NCCN3CCS(=O)(=O)CC3)CC[C@]3(C)[C@H](CC[C@@H]4[C@@]5(C)CC=C(C6=CC[C@](COc7ncccc7C#N)(C(=O)O)CC6)C(C)(C)[C@@H]5CC[C@]43C)[C@@H]12
[1]
  Vd: 0.87 L/kg
[2]
  Activity: Non-Toxic
[3]
  Imax: 57%
[4]
  half-life: 738 min
[5]
  EC50: 8 nM
Cytochrome P450 1A2
  IC50: > 4.4 µM
[6]
  Ratio EC50: 2.4
[7]
  logD: 4.74
[8]
  AUC(0-inf): 120 µM·h
[9]
  Ratio EC50: 2.5
[10]
  EC50: 2 nM
[11]
  half-life: 516 min
[12]
  solubility: 0.363 mg/mL (≈ 439 µM)
[13]
  half-life: 1610 min
[14]
  Imax: 94%
[15]
  Imax: 100%
[16]
  half-life: 684 min
[17]
  Vd: 0.43 L/kg
[18]
  EC50: 1 nM
[19]
  EC50: 2 nM
[20]
  half-life: 12 min
[21]
  EC50: 2 nM
[22]
  T1/2: 29 min
[23]
  EC50: 2 nM
[24]
  EC50: 4 nM
[25]
  clearance: 0.21 mL/min/kg
[26]
  AUC(0-inf): 36.3 µM·h
[27]
  bioavailability: 43.5%
[28]
  half-life: 870 min
[29]
  half-life: 516 min
[30]
  EC50: 12 nM
Cytochrome P450 2C8
  IC50: > 4.4 µM
